Assay results taken from the AptaBench aptamer set (doi:10.1093/nar/gkaf219).

How the values were obtained:
Conditions in all cases: 10 mM Tris-HCl, pH 7.4
[1] = test system: DNA aptamer or structured DNA GGGACGACCAGAATGGAAGCATTGGTTGCCGCAGGGTGCCGCAGTCGTCCC
[2] = test system: DNA aptamer or structured DNA GGGACGACCGTCCGAGTTTTAGGAGTGGTTGCATTGCGCTGGGAAGAGGTCGTCCC
[3] = test system: DNA aptamer or structured DNA GGGACGACGCCGGCTTTTAGGGGGGGTGTGGGTGGCGAGTCGTCCC
[4] = test system: DNA aptamer or structured DNA GGGACGACGGCACGAGGTAATTCGTTGGTTGCACTGCGCTGGGAGGCAGTCGTCCC
[5] = test system: DNA aptamer or structured DNA GGGACGACGGCACGAGGTTATTCGTTGGTTGCACTGCGCTGGGAGGCAGTCGTCCC
[6] = test system: DNA aptamer or structured DNA GGGACGACGGCACGTGGTTATTCGTTGGTTGCACTGCGCTGGGAGGCAGTCGTCCC
[7] = test system: DNA aptamer or structured DNA GGGACGACAAAAATGGAAGCATTGGTTGTTGGTGCTTTGTCGTCCC
[8] = test system: DNA aptamer or structured DNA CTTACGACAGGTTCTGAGGAATCAACGTCGGTGTAGTTGTCGTAAG
[9] = test system: DNA aptamer or structured DNA CTTACGACCGACTTTTGGGTGTTCTGGGTGGGATGTGGGTCGTAAG
[10] = test system: DNA aptamer or structured DNA GGGACGACAGGGATTCGCGGATTCGGAGAAAAGGGCTCGTACGTCGTCCC
[11] = test system: DNA aptamer or structured DNA GGGACGACAGGGATTCGGTTCTCGATAAGTAGTGCCTCGTACGTCGTCCC
[12] = test system: DNA aptamer or structured DNA GGGACGACCAGGATTCGGTTCGGAAAGTCCAGTGCCTCGTTGGTCGTCCC
[13] = test system: DNA aptamer or structured DNA GGGACGACCAGGATTCGGTTCTTTGTAAATAGTGCCTCGTTGGTCGTCCC
[14] = test system: DNA aptamer or structured DNA GGGACGACGGGGATTCGCGGATTCATAGAAAAGGGCTCGTCCGTCGTCCC
[15] = test system: DNA aptamer or structured DNA GGGACGACGGGGATTCGGTTCGTCATTTGGCAGTGCCTCGTACGTCGTCCC
[16] = test system: DNA aptamer or structured DNA GGGACGACTAGTGCCTTCGTGTTGTTCGGGAATCCGGTTCTGTCGTCCC
[17] = test system: DNA aptamer or structured DNA CTTACGACCGGTGGGGAGGCCGGAGTTGGGAACGGGGGGTCGTAAG
[18] = test system: DNA aptamer or structured DNA GGGACGACGCCGGCTTCTAGGGGGGGTGTGGGTGGCGAGTCGTCCC
[19] = test system: DNA aptamer or structured DNA GGGACGACTAGCGGTGTTGGTCGGAGTGGTGGAATCTAGTCGTCCC
[20] = test system: DNA aptamer or structured DNA GGGACGACATCGTAGGGGCACACGCTTAACGGGCTGATGTCGTCCC
[21] = test system: DNA aptamer or structured DNA GGGACGACATGCGTCGAAAAGACCCCTGAGGGCAGCTGGTCGTCCC
[22] = test system: DNA aptamer or structured DNA GGGACGACCGCGTAGGGGAACACGCTTGCAGGGCTGAGGTCGTCCC
[23] = test system: DNA aptamer or structured DNA GGGACGACCGTTGGCGAGTGTGTCCGGGGACTACAGGGGTCGTCCC
[24] = test system: DNA aptamer or structured DNA GGGACGACGAGTGCGGGGAGTGTGTTTCTGTGGGGGTCGTCGTCCC
[25] = test system: DNA aptamer or structured DNA GGGACGACGCGCATGTGGTGTCGGTCAGATGGGATGAAGTCGTCCC
[26] = test system: DNA aptamer or structured DNA GGGACGACGCGTACCATGGGTAGTTGCACGTCGTCCAAGTCGTCCC
[27] = test system: DNA aptamer or structured DNA GGGACGACGCGTAGGTCTCCTAGCTGTGCGTCGTTCAAGTCGTCCC
[28] = test system: DNA aptamer or structured DNA GGGACGACGGGGGGAGTTTGTTTGTGTGGGAGGGTCCAGTCGTCCC
[29] = test system: DNA aptamer or structured DNA CTTACGACATCTGCGTGTGGCCGGTGTGAGGGAGGGATGTCGTAAG
[30] = test system: DNA aptamer or structured DNA GGGACGACGCAGCAGTCCATCTCTCAGCGAGTTCGTCAGTCGTCCC
Wherever binding call is given: call rule not given here.

SMILES | binding call [1] | binding call [2] | binding call [3] | binding call [4] | binding call [5] | binding call [7] | binding call [8] | binding call [9] | binding call [18] | binding call [21] | binding call [23] | binding call [25] | binding call [27] | also measured
CC(N)Cc1ccccc1 (stereo not given) | no binding | binds | no binding | binds | binds | – | – | – | – | – | – | – | – | binding call [6]: binds
COC(=O)C(c1ccccc1)C1CCCCN1 (stereo not given) | – | – | – | – | – | no binding | – | – | – | – | – | – | – | –
NCCc1ccc(O)c(O)c1 | – | no binding | – | binds | binds | – | no binding | no binding | – | – | – | – | – | binding call [10]: no binding; binding call [11]: no binding; binding call [12]: binds; binding call [13]: binds; binding call [14]: no binding; binding call [15]: no binding; binding call [16]: no binding
CN1CC[C@]23c4c5ccc(O)c4O[C@H]2[C@@H](O)C=C[C@H]3[C@H]1C5 | – | no binding | – | no binding | no binding | – | – | – | – | – | – | – | – | binding call [17]: no binding; Kd [11]: 13.3 µM; Kd [12]: 3.1 µM; Kd [13]: 1.8 µM; Kd [14]: 2.5 µM; Kd [15]: 1.5 µM; Kd [16]: 1.9 µM
CNC(C)Cc1ccc2c(c1)OCO2 (stereo not given) | – | binds | no binding | binds | binds | – | no binding | no binding | no binding | – | – | – | – | binding call [6]: binds; binding call [19]: no binding
c1ccc([C@H]2CN3CCSC3=N2)cc1 | – | – | – | – | – | – | no binding | no binding | – | no binding | no binding | no binding | no binding | binding call [20]: no binding; binding call [22]: no binding; binding call [24]: no binding; binding call [26]: no binding; binding call [28]: no binding
Cc1nnc2n1-c1ccc(Cl)cc1C(c1ccccc1)=NC2 | – | – | – | – | – | no binding | – | no binding | – | no binding | no binding | binds | – | binding call [20]: no binding; binding call [22]: no binding
CN[C@@H](C)Cc1ccccc1 | no binding | – | no binding | – | – | – | no binding | no binding | no binding | no binding | – | no binding | no binding | binding call [29]: binds; binding call [17]: no binding; Kd [2]: 4.9 µM; binding call [30]: no binding; binding call [26]: no binding; Kd [4]: 6.9 µM; Kd [5]: 7 µM; Kd [6]: 6.1 µM
COC(=O)[C@@H]1C2CCC(C[C@@H]1OC(=O)c1ccccc1)N2C (stereo not given in full) | no binding | – | no binding | – | – | no binding | – | – | no binding | – | no binding | – | no binding | Kd [8]: 0.022 µM; binding call [19]: binds
